Reference: ChEMBL document CHEMBL1132710, “Antineoplastic agents. 410. Asymmetric hydroxylation of trans-combretastatin A-4” (1999)
Values after ≈ are worked out from the molar mass of the structure shown.

Key:
Format in all cases: functional
[1] = system: Neisseria gonorrhoeae; experiment: Antimicrobial activity against Neisseria gonorrhoeae
[2] = system: DU-145; experiment: Compound was evaluated against Human cell line prostate DU-145
[3] = system: SK-N-SH; experiment: Compound was evaluated against Human cell line neuroblast SK-N-SH
[4] = system: SW-1736; experiment: Compound was evaluated against Human cell line thyroid SW1736
[5] = system: P388; experiment: Compound was evaluated against P388 mouse Leukemia cell line; conditions: read-out: ED50 (the source's name)
[6] = system: FaDu; experiment: Compound was evaluated against Human cell line pharynx FADU
[7] = system: NCI-H460; experiment: Compound was evaluated against Human cell line lung-NSC NCI-H460
[8] = system: SF-295; experiment: Compound was evaluated against Human cell line CNS SF-295
[9] = system: A498; experiment: Compound was evaluated against Human cell line renal A498
[10] = system: OVCAR-3; experiment: Compound was evaluated against Human cell line ovarian OVCAR-3
[11] = system: BXPC-3; experiment: Compound was evaluated against Human cell line pancreas BXPC-3
[12] = system: KM-20L2; experiment: Compound was evaluated against Human cell line colon KM20L2
[13] = system: SK-MEL-5; experiment: Compound was evaluated against Human cell line melanoma SK-MEL-5
[14] = system: Staphylococcus aureus; experiment: Antimicrobial activity against Staphylococcus aureus

| MIC [1] [ug disk-1] | GI50 [2] [µg/mL] | GI50 [3] [µg/mL] | GI50 [4] [µg/mL] | EC50 [5] [µg/mL] | GI50 [7] [µg/mL] | GI50 [10] [µg/mL] | GI50 [11] [µg/mL] | GI50 [13] [µg/mL] | MIC [14] [ug disk-1] | Compound | GI50 [6] [µg/mL] | GI50 [8] [µg/mL] | GI50 [9] [µg/mL] | GI50 [12] [µg/mL] |
| --- | --- | --- | --- | --- | --- | --- | --- | --- | --- | --- | --- | --- | --- | --- |
| – | 7.6 (≈ 22.7 µM) | > 10 | > 10 | 32.9 (≈ 98.4 µM) | 9 (≈ 26.9 µM) | – | – | – | – | COc1ccc([C@@H](O)Cc2cc(OC)c(OC)c(OC)c2)cc1O | 4.8 (≈ 14.4 µM) | – | – | – |
| 25 | – | – | – | – | – | – | – | – | – | COc1ccc(CCc2cc(OC)c(OC)c(OC)c2)c(O)c1O | – | – | – | – |
| – | 3.5 (≈ 9.99 µM) | 1.5 (≈ 4.28 µM) | 6.1 (≈ 17.4 µM) | 19 (≈ 54.2 µM) | 4.4 (≈ 12.6 µM) | 4.5 (≈ 12.8 µM) | > 10 | 4.9 (≈ 14 µM) | – | COc1ccc([C@@H](O)[C@H](O)c2cc(OC)c(OC)c(OC)c2)cc1O | 2.1 (≈ 5.99 µM) | 5.7 (≈ 16.3 µM) | > 10 | 8.2 (≈ 23.4 µM) |
| – | 2.1 (≈ 5.99 µM) | 0.28 (≈ 0.799 µM) | 1.8 (≈ 5.14 µM) | 2 (≈ 5.71 µM) | 2.5 (≈ 7.14 µM) | 0.38 (≈ 1.08 µM) | 3.9 (≈ 11.1 µM) | 0.7 (≈ 2 µM) | – | COc1ccc([C@H](O)[C@@H](O)c2cc(OC)c(OC)c(OC)c2)cc1O | 0.6 (≈ 1.71 µM) | 0.52 (≈ 1.48 µM) | 0.91 (≈ 2.6 µM) | 0.52 (≈ 1.48 µM) |
| 50 | 0.00076 (≈ 0.0024 µM) | 0.00026 (≈ 0.000822 µM) | 0.00071 (≈ 0.00224 µM) | 0.00027 (≈ 0.000853 µM) | 0.00056 (≈ 0.00177 µM) | < 0.001 | 0.39 (≈ 1.23 µM) | 0.0002 (≈ 0.000632 µM) | – | COc1ccc(/C=C\c2cc(OC)c(OC)c(OC)c2)cc1O [COMBRETASTATIN A4] | 0.00065 (≈ 0.00205 µM) | < 0.001 | – | 0.061 (≈ 0.193 µM) |
| 50 | – | – | – | – | – | – | – | – | 100 | COc1ccc(/C=C\c2cc(OC)c(OC)c(OC)c2)c(O)c1O [COMBRETASTATIN A-1] | – | – | – | – |

| Compound | MIC [1] [ug disk-1] | GI50 [2] [µg/mL] | GI50 [3] [µg/mL] | GI50 [4] [µg/mL] | EC50 [5] [µg/mL] | GI50 [7] [µg/mL] | GI50 [10] [µg/mL] | GI50 [11] [µg/mL] | GI50 [13] [µg/mL] | MIC [14] [ug disk-1] | GI50 [6] [µg/mL] | GI50 [8] [µg/mL] | GI50 [9] [µg/mL] | GI50 [12] [µg/mL] |
| --- | --- | --- | --- | --- | --- | --- | --- | --- | --- | --- | --- | --- | --- | --- |
| COc1ccc(/C=C\c2cc(OC)c(OC)c(OC)c2)cc1OP(=O)([O-])O.[Na+] | 100 | – | – | – | – | – | – | – | – | – | – | – | – | – |
